Reference: US8252832B2, “Kinesin inhibitors as cancer therapeutics” (Novartis AG, priority 2007, dated 2012)
Like-named read-outs stand apart in the source and are kept apart here.

How the values were obtained:
Assay in all cases: CellTiter-Glo, NCI60 panel
Format in all cases: cell-based
SK-MEL-2 = settings: Melanoma; for GI50: Homo sapiens
From the text: (§1) Identification of tumor types that are the most sensitive to the KSP inhibitors of the present invention can be accomplished using an unbiased approach that uses several cell-based assays. The assays chosen were as follows: • CellTiter-Glo®. This is an assay designed to measure ATP concentration in a cell culture, and can be correlated to cell number. Briefly CellTiter-Glo® (Promega Corporation) is a homogeneous method using the single CellTiter-Glo® reagent to detect ATP wherein ATP in the assay drives the activity of a thermostable luciferase to create a luminescent signal which can then be measured and correlated with the number of viable cells. Briefly, for adherent cells, 1,000 to 5,000 cells/well were plated in 96-well plates (100 μl/well) and let to adhere for 24 hours before being treated with drug. For non-adherent cells, 1,000 to 10,000 cells/well were plated in 96-well plates (100 μl/well) and immediately treated with drug. Drug dilutions were prepared in DMSO at 1000 times the final concentration. These dilutions were then diluted 1/100 in growth media before being added to the cells (11 μl/well) to achieve the desired final concentration. After 48 h in a 37° C. tissue culture incubator, the plates were processed for the CellTiter-Glo®assay according to the manufacturer's instructions. Protocol for a 72 hour cell proliferation assay: The 72 hour assay was performed the same way as the 48 hour assay except for the following modifications: For adherent cells, 500 to 5,000 cells/well were plated in 96-well plates (90 μl/well cell growth media) and left to adhere for 24 hours before being treated with drug. For non-adherent cells, 1,000 to 10,000 cells/well were plated in 96-well plates (90 μl/well cell growth media) and immediately treated with drug. Data values presented represent the concentration of test compound required for a 50% reduction in growth. • LDH release. The Cytotoxicity Detection KitPLUS (LDH) assay (Roche Diagnostics, Manheim, Germany) measures the amount of LDH released in the media by dying cells; LDH catalyzes the conversion of lactate into pyruvate. The enzymatic reaction is coupled to a chemical reaction that uses a tetrazolium salt to form a formazan that is red and can be detected by its absorbance at 490 nm. This assay measures the amount of cell death after drug treatment. Cells were plated at 10,000 cells/well in 96-well plates (100 μl/well). Adherent cells were let to adhere for 24 hours before being treated with drug, whereas non-adherent cells were immediately treated with drug. Drug dilutions were prepared in DMSO at 1000 times the final concentration. These dilutions were then diluted 1/100 in growth media before being added to the cells (11 μl/well) to achieve the desired final concentration. After 48 h in a 37° C. tissue culture incubator, the plates were processed for the Cytotoxicity Detection KitPLUS (LDH) assay according to the manufacturer's instructions. The media only values were subtracted from all the data points before analysis. Data values presented correspond to the compound concentration wherein LDH output is at half maximal level. • Caspase-Glo® 3/7. The Caspase-Glo® 3/7 Assay (Promega Corporation) is a homogeneous luminescent assay that measures caspase-3/7 activities. The assay provides a proluminescent caspase-3/7 DEVD-aminoluciferin substrate and a thermostable luciferase in a reagent optimized for caspase-3/7 activity, luciferase activity and cell lysis. Adding the single Caspase-Glo® 3/7 Reagent results in cell lysis, followed by caspase cleavage of the substrate. This liberates free aminoluciferin, which is consumed by the luciferase, generating a luminescent signal. The signal is proportional to caspase-3/7 activity. Data values presented correspond to the compound concentration wherein caspase 3/7 activity is at half maximal level. […]

TK-10 = settings: Renal; for GI50: Homo sapiens
From the text: as §1

HOP-62 = settings: NSCL; for GI50: Homo sapiens
From the text: as §1

MCF7 = settings: Breast; for GI50: Homo sapiens
From the text: as §1

SR = settings: Leukemia; for GI50: Homo sapiens
From the text: as §1

NCI/ADR-RES = settings: Ovarian; for GI50: Homo sapiens
From the text: as §1

HOP-92 = settings: NSCL; for GI50: Homo sapiens
From the text: as §1

SNB-19 = settings: CNS; for GI50: Homo sapiens
From the text: as §1

A498 = settings: Renal; for GI50: Homo sapiens
From the text: as §1

MALME-3M = settings: Melanoma; for GI50: Homo sapiens
From the text: as §1

HS 578T = settings: Breast; for GI50: Homo sapiens
From the text: as §1

MDA-MB-231 = settings: Breast; for GI50: Homo sapiens
From the text: as §1

EKVX = settings: NSCL; for GI50: Homo sapiens
From the text: as §1

RPMI-8226 = settings: Leukemia; for GI50: Homo sapiens
From the text: as §1

SNB-75 = settings: CNS; for GI50: Homo sapiens
From the text: as §1

RXF 393 = settings: Renal; for GI50: Homo sapiens
From the text: as §1

[1] = GI50 in nM, read-out: Log(GI50) (converted)

CC(C)(C)[C@H](c1nc(-c2cc(F)ccc2F)cn1Cc1ccccc1)N(CC[C@H](N)CF)C(=O)CO [Compound IIa]
0.786: Differential vs mean Log(GI50) (RPMI-8226)
−0.112: Differential vs mean Log(GI50) (SK-MEL-2)
1.353: Differential vs mean Log(GI50) (SR)
2.77 nM: GI50 (SK-MEL-2; [1]) | GI50 (SK-MEL-2; read-out: GI50)
4.18 nM: GI50 (NCI/ADR-RES; [1]) | GI50 (NCI/ADR-RES; read-out: GI50)
−0.290: Differential vs mean Log(GI50) (NCI/ADR-RES)
0.333 nM: GI50 (MDA-MB-231; [1]) | GI50 (MDA-MB-231; read-out: GI50)
0.809: Differential vs mean Log(GI50) (MDA-MB-231)
0.095 nM: GI50 (SR; [1]) | GI50 (SR; read-out: GI50)
0.22 nM: GI50 (HS 578T; [1]) | GI50 (HS 578T; read-out: GI50)
0.351 nM: GI50 (RPMI-8226; [1]) | GI50 (RPMI-8226; read-out: GI50)
−0.669: Differential vs mean Log(GI50) (TK-10) | Differential vs mean Log(GI50) (HOP-62) | Differential vs mean Log(GI50) (MCF7) | Differential vs mean Log(GI50) (HOP-92) | Differential vs mean Log(GI50) (SNB-19) | Differential vs mean Log(GI50) (A498) | Differential vs mean Log(GI50) (MALME-3M) | Differential vs mean Log(GI50) (EKVX) | Differential vs mean Log(GI50) (SNB-75) | Differential vs mean Log(GI50) (RXF 393)
0.989: Differential vs mean Log(GI50) (HS 578T)
10 nM: GI50 (TK-10; [1]) | GI50 (TK-10; read-out: GI50) | GI50 (HOP-62; [1]) | GI50 (HOP-62; read-out: GI50) | GI50 (MCF7; [1]) | GI50 (MCF7; read-out: GI50) | GI50 (HOP-92; [1]) | GI50 (HOP-92; read-out: GI50) | GI50 (SNB-19; [1]) | GI50 (SNB-19; read-out: GI50) | GI50 (A498; [1]) | GI50 (A498; read-out: GI50) | GI50 (MALME-3M; [1]) | GI50 (MALME-3M; read-out: GI50) | GI50 (EKVX; [1]) | GI50 (EKVX; read-out: GI50) | GI50 (SNB-75; [1]) | GI50 (SNB-75; read-out: GI50) | GI50 (RXF 393; [1]) | GI50 (RXF 393; read-out: GI50)
